Experimental data published in ChEMBL document CHEMBL1201862, “PubChem BioAssay data set” (2004).
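Five concentrations, 48 hours, 96-well plates. The concentration for 50% growth inhibition is given as GI50.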 The source made the active and inactive calls. Rule as the data show it: active = GI50 up to about 1.1 µM and inactive = higher.

Key:
Test in all cases: inhibition of tumour cell growth, NCI panel, 48 h
[1] = test system: A498
[2] = test system: NCI/ADR-RES
[3] = test system: T47D
[4] = test system: HCT-15
[5] = test system: MCF7
[6] = test system: 786-0
[7] = test system: U-251
[8] = test system: K562
[9] = test system: Hs-578T
[10] = test system: SN12C
[11] = test system: SF-295
[12] = test system: SW-620
[13] = test system: RXF 393
[14] = test system: MDA-MB-231
[15] = test system: SK-OV-3
[16] = test system: LOX IMVI
[17] = test system: SF-539
[18] = test system: HL-60

Structure (SMILES) | GI50 [1] | GI50 [2] | GI50 [3] | GI50 [4] | GI50 [5] | GI50 [6] | GI50 [7] | GI50 [8] | GI50 [9] | GI50 [10] | GI50 [11] | GI50 [12] | GI50 [13] | GI50 [14] | GI50 [15] | GI50 [16] | GI50 [17] | GI50 [18]
CC(=O)/C(=N\N=C(N)N)c1ccccc1 | > 100 µM (inactive) | > 100 µM (inactive) | 73.1 µM (inactive) | > 100 µM | > 100 µM (inactive) | > 100 µM (inactive) | > 100 µM (inactive) | > 100 µM (inactive) | > 100 µM (inactive) | > 100 µM (inactive) | > 100 µM (inactive) | > 100 µM (inactive) | > 100 µM (inactive) | > 100 µM (inactive) | > 100 µM (inactive) | > 100 µM (inactive) | > 100 µM (inactive) | –
O=C(O)Cn1ccnc1[N+](=O)[O-] | > 100 µM (inactive) | > 100 µM (inactive) | > 100 µM (inactive) | > 100 µM | > 100 µM (inactive) | > 100 µM (inactive) | > 100 µM (inactive) | > 100 µM (inactive) | > 100 µM (inactive) | > 100 µM (inactive) | > 100 µM (inactive) | > 100 µM (inactive) | > 100 µM (inactive) | > 100 µM (inactive) | > 100 µM (inactive) | – | > 100 µM (inactive) | > 100 µM (inactive)
COC(=O)C1(Cc2ccccc2)Cc2ccc3c(c2C1=O)CCC3 (configuration not stated) | 35.4 µM (inactive) | 23.7 µM (inactive) | 11.5 µM (inactive) | 35 µM | 23.1 µM (inactive) | 33.7 µM (inactive) | 36.1 µM (inactive) | 30.6 µM (inactive) | 3.95 µM (inactive) | 44.4 µM (inactive) | > 46.2 µM (inactive) | > 60.4 µM (inactive) | 20.4 µM (inactive) | 33.4 µM (inactive) | > 80.4 µM (inactive) | 39.3 µM (inactive) | > 48.9 µM (inactive) | 20.3 µM (inactive)
O=C1NC(c2ccccc2)C1N(Cc1ccccc1)Cc1ccccc1 (configuration not stated) | > 100 µM (inactive) | > 100 µM (inactive) | > 100 µM (inactive) | > 100 µM | > 100 µM (inactive) | > 100 µM (inactive) | > 100 µM (inactive) | > 100 µM (inactive) | 61.2 µM (inactive) | > 100 µM (inactive) | > 100 µM (inactive) | > 100 µM (inactive) | > 100 µM (inactive) | 74.1 µM (inactive) | > 100 µM (inactive) | > 100 µM (inactive) | > 100 µM (inactive) | > 100 µM (inactive)
CSc1nc(N)c(NC2OC(CO)C(O)C2O)c(=O)[nH]1 (configuration not stated) | > 100 µM (inactive) | > 100 µM (inactive) | > 100 µM (inactive) | > 100 µM | > 100 µM (inactive) | > 100 µM (inactive) | > 100 µM (inactive) | > 100 µM (inactive) | > 100 µM (inactive) | > 100 µM (inactive) | > 100 µM (inactive) | > 100 µM (inactive) | > 100 µM (inactive) | > 100 µM (inactive) | > 100 µM (inactive) | > 100 µM (inactive) | > 100 µM (inactive) | > 100 µM (inactive)
C[C@]12CC(c3ccccc3O1)C(C(N)=O)C(=O)N2 (some centres not stated) | > 100 µM (inactive) | > 100 µM (inactive) | > 100 µM (inactive) | > 100 µM | > 100 µM (inactive) | > 100 µM (inactive) | > 100 µM (inactive) | > 100 µM (inactive) | > 100 µM (inactive) | > 100 µM (inactive) | – | > 100 µM (inactive) | > 100 µM (inactive) | > 100 µM (inactive) | > 100 µM (inactive) | > 100 µM (inactive) | – | > 100 µM (inactive)
NC(=O)c1cc2ccc(O)cc2o/c1=N/NC(=O)c1ccccc1 | 40.5 µM (inactive) | > 100 µM (inactive) | 15.6 µM (inactive) | 79.3 µM | > 100 µM (inactive) | 79.4 µM (inactive) | > 100 µM (inactive) | 75.5 µM (inactive) | 81.3 µM (inactive) | 63.7 µM (inactive) | > 100 µM (inactive) | 64.3 µM (inactive) | 40.6 µM (inactive) | 80.5 µM (inactive) | 61.2 µM (inactive) | 47.8 µM (inactive) | – | 61 µM (inactive)
Cc1ccc(C)c2c1n1c(=O)n(C)c(=O)n21 | > 100 µM (inactive) | > 100 µM (inactive) | > 100 µM (inactive) | > 100 µM | > 100 µM (inactive) | > 100 µM (inactive) | > 100 µM (inactive) | – | > 100 µM (inactive) | > 100 µM (inactive) | > 100 µM (inactive) | > 100 µM (inactive) | > 100 µM (inactive) | > 100 µM (inactive) | > 100 µM (inactive) | > 100 µM (inactive) | > 100 µM (inactive) | > 100 µM (inactive)
O=C1CSC(c2c[nH]c3ccccc23)N1c1ccc(Cl)cc1 (configuration not stated) | > 100 µM (inactive) | > 100 µM (inactive) | > 100 µM (inactive) | > 100 µM | > 100 µM (inactive) | > 100 µM (inactive) | > 100 µM (inactive) | > 100 µM (inactive) | > 100 µM (inactive) | > 100 µM (inactive) | > 100 µM (inactive) | > 100 µM (inactive) | > 100 µM (inactive) | > 100 µM (inactive) | > 100 µM (inactive) | – | > 100 µM (inactive) | > 100 µM (inactive)
COC(=O)c1c(O)ccc2c1c1c(n2Cc2ccccc2Cl)C(=O)c2ccccc2C1=O | 16.5 µM (inactive) | 12.1 µM (inactive) | 7.01 µM (inactive) | 12.7 µM | 6.73 µM (inactive) | 16.6 µM (inactive) | 12.6 µM (inactive) | 14.3 µM (inactive) | 21.6 µM (inactive) | 10.2 µM (inactive) | 14.6 µM (inactive) | – | 16.3 µM (inactive) | 15.3 µM (inactive) | 12.9 µM (inactive) | – | 15.4 µM (inactive) | 16.9 µM (inactive)
c1csc(-c2cc(-c3ccsc3)c(-c3ccsc3)s2)c1 | > 100 µM (inactive) | > 100 µM (inactive) | 3.49 µM (inactive) | 24 µM | 24.8 µM (inactive) | > 100 µM (inactive) | > 100 µM (inactive) | > 100 µM (inactive) | > 100 µM (inactive) | > 100 µM (inactive) | > 100 µM (inactive) | > 100 µM (inactive) | > 100 µM (inactive) | > 100 µM (inactive) | > 100 µM (inactive) | – | > 100 µM (inactive) | –
CC[C@H](C)[C@@H]([C@@H](CC(=O)N1CCC[C@H]1[C@H](OC)[C@@H](C)C(=O)NCCc1ccccc1)OC)N(C)C(=O)C(NC(=O)[C@H](C(C)C)N(C)C)C(C)C (some centres not stated) | 0.000266 µM (active) | 0.00736 µM (active) | > 10 µM (inactive) | 0.00201 µM | 4.54e-05 µM (active) | 0.00021 µM (active) | 0.000251 µM (active) | 6.68e-05 µM (active) | 0.000446 µM (active) | 0.000361 µM (active) | – | 0.000249 µM (active) | 0.000174 µM (active) | 0.000526 µM (active) | – | 0.000299 µM (active) | 0.000232 µM (active) | 7.02e-05 µM (active)
C[C@]12CC[C@H]3[C@@H](CCC4=C[C@@H](OC5OCC(OC6OC(CO)C(O)C(O)C6O)C(O)C5O)CC[C@@]43C=O)[C@@]1(O)CCC2C1=CC(=O)OC1 (some centres not stated) | 0.755 µM (active) | 0.469 µM (active) | 1.5 µM (inactive) | 0.504 µM | 0.94 µM (active) | 0.365 µM (active) | 0.849 µM (active) | 0.397 µM (active) | 0.522 µM (active) | 0.364 µM (active) | 0.638 µM (active) | 0.746 µM (active) | 0.23 µM (active) | 3.02 µM (inactive) | 1.13 µM (inactive) | 0.63 µM (active) | 0.391 µM (active) | 0.244 µM (active)
CC(=O)c1cc2ccccc2[n+]([O-])c1N | > 100 µM (inactive) | > 100 µM (inactive) | > 100 µM (inactive) | > 100 µM | > 100 µM (inactive) | > 100 µM (inactive) | > 100 µM (inactive) | – | > 100 µM (inactive) | > 100 µM (inactive) | > 100 µM (inactive) | – | > 100 µM (inactive) | > 100 µM (inactive) | > 100 µM (inactive) | > 100 µM (inactive) | > 100 µM (inactive) | > 100 µM (inactive)
CCCCON1C[C@@H](O)C(O)[C@@H](O)C1 (some centres not stated) | > 100 µM (inactive) | > 100 µM (inactive) | > 100 µM (inactive) | > 100 µM | > 100 µM (inactive) | > 100 µM (inactive) | > 100 µM (inactive) | > 100 µM (inactive) | > 100 µM (inactive) | > 100 µM (inactive) | > 100 µM (inactive) | > 100 µM (inactive) | > 100 µM (inactive) | > 100 µM (inactive) | – | > 100 µM (inactive) | > 100 µM (inactive) | > 100 µM (inactive)
C/C(=C\CNc1ncnc2[nH]c(Cl)nc12)CO | > 100 µM (inactive) | > 100 µM (inactive) | > 100 µM (inactive) | – | > 100 µM (inactive) | > 100 µM (inactive) | – | > 100 µM (inactive) | > 100 µM (inactive) | > 100 µM (inactive) | > 100 µM (inactive) | > 100 µM (inactive) | > 100 µM (inactive) | > 100 µM (inactive) | > 100 µM (inactive) | > 100 µM (inactive) | > 100 µM (inactive) | > 100 µM (inactive)
Cn1c(-c2ccc[se]2)ccc1-c1ccc(C=O)[se]1 | 1.17 µM (inactive) | 2.16 µM (inactive) | 0.325 µM (active) | 8.15 µM | 0.124 µM (active) | 20.9 µM (inactive) | 0.0811 µM (active) | 0.323 µM (active) | 25.2 µM (inactive) | 14.9 µM (inactive) | 12.4 µM (inactive) | 1.3 µM (inactive) | – | 35.9 µM (inactive) | 16.6 µM (inactive) | 8.99 µM (inactive) | 3.89 µM (inactive) | 9.31 µM (inactive)
